Laboratory results: US20080051466A1, “Isoalpha acid based protein kinase modulation cancer treatment” (Metaproteomics, LLC, priority 2006, published 2008)

Key:
Test in all cases: KinaseProfiler Assay
Format in all cases: biochemical
CHK1 = target: T1, CHK1 (Homo sapiens, UniProt O14757); settings: read-out: CHK1, % of Control
T1 sequence (O14757 1-476): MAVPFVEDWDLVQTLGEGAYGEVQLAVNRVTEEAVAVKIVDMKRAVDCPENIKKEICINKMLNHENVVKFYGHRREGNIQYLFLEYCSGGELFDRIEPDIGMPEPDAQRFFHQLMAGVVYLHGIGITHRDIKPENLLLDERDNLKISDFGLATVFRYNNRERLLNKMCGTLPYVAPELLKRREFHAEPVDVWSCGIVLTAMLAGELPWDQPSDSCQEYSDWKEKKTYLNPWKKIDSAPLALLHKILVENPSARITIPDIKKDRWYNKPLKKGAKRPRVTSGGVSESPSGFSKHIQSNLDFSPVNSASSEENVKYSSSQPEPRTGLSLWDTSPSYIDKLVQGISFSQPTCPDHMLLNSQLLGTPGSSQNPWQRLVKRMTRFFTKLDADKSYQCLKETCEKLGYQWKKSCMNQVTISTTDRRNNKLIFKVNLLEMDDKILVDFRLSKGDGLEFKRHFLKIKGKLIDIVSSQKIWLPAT

HIPK2 = HIPK2 (Homo sapiens, UniProt Q9H2X6); settings: read-out: HIPK2, % of Control
MSK1 = MSK1 (Homo sapiens, UniProt O75582); settings: read-out: MSK1, % of Control
PKBγ = PKBγ (Homo sapiens, UniProt Q9Y243); settings: read-out: PKBγ, % of Control
TBK1 = target: T2, TBK1 (Homo sapiens, UniProt Q9UHD2); settings: read-out: TBK1, % of Control
T2 sequence (Q9UHD2 1-729): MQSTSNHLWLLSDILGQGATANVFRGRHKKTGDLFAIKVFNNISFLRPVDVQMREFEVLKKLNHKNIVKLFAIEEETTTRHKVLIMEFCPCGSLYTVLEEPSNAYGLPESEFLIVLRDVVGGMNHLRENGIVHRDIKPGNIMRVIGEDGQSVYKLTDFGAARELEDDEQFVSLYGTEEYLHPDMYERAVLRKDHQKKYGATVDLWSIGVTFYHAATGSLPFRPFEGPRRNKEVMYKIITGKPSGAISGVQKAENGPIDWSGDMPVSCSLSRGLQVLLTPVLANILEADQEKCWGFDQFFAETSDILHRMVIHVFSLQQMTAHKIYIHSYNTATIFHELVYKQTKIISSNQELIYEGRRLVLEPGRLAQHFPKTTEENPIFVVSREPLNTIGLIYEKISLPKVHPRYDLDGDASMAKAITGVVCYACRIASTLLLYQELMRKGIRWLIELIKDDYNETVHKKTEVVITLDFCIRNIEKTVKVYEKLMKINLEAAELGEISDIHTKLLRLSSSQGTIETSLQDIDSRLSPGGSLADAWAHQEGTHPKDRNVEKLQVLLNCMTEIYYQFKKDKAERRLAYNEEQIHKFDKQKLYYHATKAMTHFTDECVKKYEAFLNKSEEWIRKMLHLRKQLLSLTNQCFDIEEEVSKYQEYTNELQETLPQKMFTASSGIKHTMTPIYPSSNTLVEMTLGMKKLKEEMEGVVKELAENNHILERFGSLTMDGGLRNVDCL

PRAK = PRAK (Homo sapiens, UniProt Q8IW41); settings: read-out: PRAK, % of Control
IRAK1 = IRAK1 (Homo sapiens, UniProt P51617); settings: read-out: IRAK1, % of Control
SGK = SGK (Homo sapiens, UniProt O00141); settings: 5 ug/ml; read-out: SGK, % of Control
CK1γ3 = CK1γ3 (Homo sapiens, UniProt Q9Y6M4); settings: read-out: CK1γ3, % of Control
Fgr = Fgr (Homo sapiens, UniProt P09769); settings: read-out: Fgr, % of Control
Sequence of Fgr (P09769 whole entry): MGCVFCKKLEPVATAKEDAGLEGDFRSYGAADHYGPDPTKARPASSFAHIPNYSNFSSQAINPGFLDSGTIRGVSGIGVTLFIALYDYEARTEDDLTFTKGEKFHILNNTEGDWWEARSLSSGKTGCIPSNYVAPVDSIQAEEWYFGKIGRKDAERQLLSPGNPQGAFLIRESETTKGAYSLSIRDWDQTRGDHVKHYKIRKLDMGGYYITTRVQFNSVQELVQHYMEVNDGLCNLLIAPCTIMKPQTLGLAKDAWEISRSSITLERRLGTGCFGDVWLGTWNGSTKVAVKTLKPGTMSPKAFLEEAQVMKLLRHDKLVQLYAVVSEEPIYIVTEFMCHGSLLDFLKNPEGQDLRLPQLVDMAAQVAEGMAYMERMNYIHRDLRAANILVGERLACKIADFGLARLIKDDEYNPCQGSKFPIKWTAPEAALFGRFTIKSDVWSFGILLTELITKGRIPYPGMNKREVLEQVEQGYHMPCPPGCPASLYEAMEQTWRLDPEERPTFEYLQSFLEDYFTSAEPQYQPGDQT

Sequence of IRAK1 (P51617 whole entry): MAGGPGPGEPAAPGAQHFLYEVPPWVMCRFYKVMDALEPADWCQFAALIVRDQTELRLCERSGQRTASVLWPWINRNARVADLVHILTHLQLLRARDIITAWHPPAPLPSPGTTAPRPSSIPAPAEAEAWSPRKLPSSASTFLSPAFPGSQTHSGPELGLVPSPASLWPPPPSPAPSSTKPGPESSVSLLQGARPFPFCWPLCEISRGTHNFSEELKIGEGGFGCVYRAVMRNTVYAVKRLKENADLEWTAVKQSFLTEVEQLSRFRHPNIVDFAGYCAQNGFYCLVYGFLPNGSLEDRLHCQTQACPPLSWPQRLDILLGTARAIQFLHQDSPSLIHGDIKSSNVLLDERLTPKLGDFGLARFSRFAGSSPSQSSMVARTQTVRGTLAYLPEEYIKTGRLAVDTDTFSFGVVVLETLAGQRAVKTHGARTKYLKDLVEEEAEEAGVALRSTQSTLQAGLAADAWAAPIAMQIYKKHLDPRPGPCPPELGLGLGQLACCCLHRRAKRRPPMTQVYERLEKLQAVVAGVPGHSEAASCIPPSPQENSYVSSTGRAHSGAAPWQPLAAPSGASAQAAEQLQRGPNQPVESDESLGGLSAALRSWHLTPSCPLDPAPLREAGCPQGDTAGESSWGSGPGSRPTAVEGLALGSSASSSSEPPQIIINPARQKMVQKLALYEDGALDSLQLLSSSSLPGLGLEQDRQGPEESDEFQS
Sequence of PKBγ (Q9Y243 whole entry): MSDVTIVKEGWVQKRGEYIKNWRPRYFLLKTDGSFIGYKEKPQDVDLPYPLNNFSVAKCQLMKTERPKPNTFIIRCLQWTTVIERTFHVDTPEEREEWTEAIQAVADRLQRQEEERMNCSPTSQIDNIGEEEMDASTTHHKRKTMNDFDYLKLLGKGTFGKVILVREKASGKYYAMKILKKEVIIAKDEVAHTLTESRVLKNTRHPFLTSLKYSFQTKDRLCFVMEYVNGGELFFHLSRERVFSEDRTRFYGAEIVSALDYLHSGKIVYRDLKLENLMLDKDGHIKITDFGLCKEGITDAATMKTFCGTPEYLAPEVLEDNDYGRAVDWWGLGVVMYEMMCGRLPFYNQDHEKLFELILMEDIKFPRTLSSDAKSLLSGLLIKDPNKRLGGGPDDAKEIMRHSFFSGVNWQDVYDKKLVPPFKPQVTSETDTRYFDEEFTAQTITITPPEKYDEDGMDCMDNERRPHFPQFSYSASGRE
Sequence of CK1γ3 (Q9Y6M4 whole entry): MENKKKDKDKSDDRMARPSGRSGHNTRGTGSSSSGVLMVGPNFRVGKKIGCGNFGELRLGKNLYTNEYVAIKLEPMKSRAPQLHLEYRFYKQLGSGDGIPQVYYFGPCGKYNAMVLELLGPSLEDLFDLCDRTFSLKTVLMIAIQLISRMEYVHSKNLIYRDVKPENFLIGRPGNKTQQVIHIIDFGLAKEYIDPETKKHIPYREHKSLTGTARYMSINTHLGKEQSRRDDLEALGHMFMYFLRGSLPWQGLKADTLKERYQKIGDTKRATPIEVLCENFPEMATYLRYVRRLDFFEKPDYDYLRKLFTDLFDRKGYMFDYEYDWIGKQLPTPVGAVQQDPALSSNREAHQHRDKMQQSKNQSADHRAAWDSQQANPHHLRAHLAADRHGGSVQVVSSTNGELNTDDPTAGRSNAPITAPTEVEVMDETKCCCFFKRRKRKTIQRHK
Sequence of MSK1 (O75582 whole entry): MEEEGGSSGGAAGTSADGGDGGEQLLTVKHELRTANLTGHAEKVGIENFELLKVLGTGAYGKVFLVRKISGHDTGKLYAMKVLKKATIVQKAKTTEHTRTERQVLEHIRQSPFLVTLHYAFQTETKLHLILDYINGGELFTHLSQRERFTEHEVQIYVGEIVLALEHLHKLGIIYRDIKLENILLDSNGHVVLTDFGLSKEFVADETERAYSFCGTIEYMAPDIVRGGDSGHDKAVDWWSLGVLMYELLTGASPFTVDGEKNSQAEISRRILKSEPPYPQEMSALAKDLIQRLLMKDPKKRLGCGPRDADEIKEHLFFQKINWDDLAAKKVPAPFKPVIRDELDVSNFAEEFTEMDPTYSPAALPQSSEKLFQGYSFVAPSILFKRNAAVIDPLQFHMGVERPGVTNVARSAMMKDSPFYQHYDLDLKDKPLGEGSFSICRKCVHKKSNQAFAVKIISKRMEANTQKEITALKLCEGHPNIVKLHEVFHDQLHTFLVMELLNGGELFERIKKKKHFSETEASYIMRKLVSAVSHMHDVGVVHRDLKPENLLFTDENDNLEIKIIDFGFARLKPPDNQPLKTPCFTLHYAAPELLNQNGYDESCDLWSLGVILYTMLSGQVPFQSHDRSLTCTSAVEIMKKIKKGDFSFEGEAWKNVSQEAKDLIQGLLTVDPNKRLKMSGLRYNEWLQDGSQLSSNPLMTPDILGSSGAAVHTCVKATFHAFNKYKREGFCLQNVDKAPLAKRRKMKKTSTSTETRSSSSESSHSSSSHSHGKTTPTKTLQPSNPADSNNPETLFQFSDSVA
Sequence of PRAK (Q8IW41 whole entry): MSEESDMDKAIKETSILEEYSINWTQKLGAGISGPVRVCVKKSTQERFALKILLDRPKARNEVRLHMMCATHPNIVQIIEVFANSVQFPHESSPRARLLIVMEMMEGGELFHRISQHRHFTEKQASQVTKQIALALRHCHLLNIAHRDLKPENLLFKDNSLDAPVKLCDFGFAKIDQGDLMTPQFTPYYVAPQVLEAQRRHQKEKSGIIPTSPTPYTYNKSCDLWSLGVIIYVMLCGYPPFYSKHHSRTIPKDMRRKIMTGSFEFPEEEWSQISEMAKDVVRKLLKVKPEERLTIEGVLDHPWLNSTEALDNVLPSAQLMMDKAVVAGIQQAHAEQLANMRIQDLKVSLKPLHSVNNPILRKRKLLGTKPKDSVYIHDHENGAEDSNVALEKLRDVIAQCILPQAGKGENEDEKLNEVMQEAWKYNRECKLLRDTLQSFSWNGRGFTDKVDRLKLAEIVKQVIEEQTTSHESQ
Sequence of HIPK2 (Q9H2X6 whole entry): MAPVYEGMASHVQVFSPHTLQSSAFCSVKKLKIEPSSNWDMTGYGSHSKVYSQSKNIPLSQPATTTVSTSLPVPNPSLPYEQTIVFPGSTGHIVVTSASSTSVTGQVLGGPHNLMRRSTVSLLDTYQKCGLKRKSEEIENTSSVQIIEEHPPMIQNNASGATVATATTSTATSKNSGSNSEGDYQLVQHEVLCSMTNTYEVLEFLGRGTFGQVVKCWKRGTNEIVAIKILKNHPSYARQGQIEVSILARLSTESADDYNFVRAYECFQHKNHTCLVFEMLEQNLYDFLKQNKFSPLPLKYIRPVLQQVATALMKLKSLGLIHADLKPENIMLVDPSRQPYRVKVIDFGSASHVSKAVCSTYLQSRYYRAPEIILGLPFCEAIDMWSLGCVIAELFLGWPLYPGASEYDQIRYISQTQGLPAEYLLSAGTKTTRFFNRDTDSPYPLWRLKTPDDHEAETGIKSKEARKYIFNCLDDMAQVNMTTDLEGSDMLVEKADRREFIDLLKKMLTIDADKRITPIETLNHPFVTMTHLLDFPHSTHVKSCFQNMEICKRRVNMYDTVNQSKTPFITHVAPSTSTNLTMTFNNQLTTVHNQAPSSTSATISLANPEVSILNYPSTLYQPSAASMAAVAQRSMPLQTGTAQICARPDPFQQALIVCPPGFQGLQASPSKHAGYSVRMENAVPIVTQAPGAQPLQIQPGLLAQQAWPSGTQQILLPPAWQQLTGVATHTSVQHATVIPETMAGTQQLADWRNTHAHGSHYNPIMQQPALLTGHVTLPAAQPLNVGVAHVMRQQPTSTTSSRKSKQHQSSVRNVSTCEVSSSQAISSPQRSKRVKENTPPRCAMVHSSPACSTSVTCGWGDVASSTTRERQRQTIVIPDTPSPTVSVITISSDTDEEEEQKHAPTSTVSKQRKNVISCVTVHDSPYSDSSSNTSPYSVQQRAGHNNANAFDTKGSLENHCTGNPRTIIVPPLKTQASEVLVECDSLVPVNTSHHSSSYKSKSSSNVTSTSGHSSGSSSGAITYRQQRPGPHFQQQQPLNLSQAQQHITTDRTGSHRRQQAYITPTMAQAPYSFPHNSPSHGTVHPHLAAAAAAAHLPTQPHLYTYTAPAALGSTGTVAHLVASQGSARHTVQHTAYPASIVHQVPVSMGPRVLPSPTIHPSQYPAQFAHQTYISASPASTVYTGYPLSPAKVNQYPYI

- remaining activity at 1 µg/mL (CHK1; 1 ug/ml): 121%
- remaining activity at 5 µg/mL (CHK1; 5 ug/ml): 126%
- remaining activity at 25 µg/mL (CHK1; 25 ug/ml): 142%
- remaining activity at 50 µg/mL (CHK1; 50 ug/ml): 149%
- remaining activity at 1 µg/mL (HIPK2; 1 ug/ml): 110%
- remaining activity at 5 µg/mL (HIPK2; 5 ug/ml): 98%
- remaining activity at 1 µg/mL (MSK1; 1 ug/ml): 114%
- remaining activity at 5 µg/mL (MSK1; 5 ug/ml): 92%
- remaining activity at 25 µg/mL (MSK1; 25 ug/ml): 31%
- remaining activity at 1 µg/mL (PKBγ; 1 ug/ml): 104%
- remaining activity at 5 µg/mL (PKBγ; 5 ug/ml): 104%
- remaining activity at 25 µg/mL (PKBγ; 25 ug/ml): 12%
- remaining activity at 1 µg/mL (TBK1; 1 ug/ml): 104%
- remaining activity at 5 µg/mL (TBK1; 5 ug/ml): 71%
- remaining activity at 25 µg/mL (TBK1; 25 ug/ml): 45%
- remaining activity at 50 µg/mL (TBK1; 50 ug/ml): 42%
- remaining activity at 1 µg/mL (PRAK; 1 ug/ml): 101%
- remaining activity at 5 µg/mL (PRAK; 5 ug/ml): 53%
- remaining activity at 1 µg/mL (IRAK1; 1 ug/ml): 129%
- remaining activity at 5 µg/mL (IRAK1; 5 ug/ml): 104%
- remaining activity at 50 µg/mL (IRAK1; 50 ug/ml): 36%
- remaining activity at 5 µg/mL (SGK): 84%
- remaining activity at 1 µg/mL (CK1γ3; 1 ug/ml): 98%
- remaining activity at 5 µg/mL (CK1γ3; 5 ug/ml): 51%
- remaining activity at 25 µg/mL (CK1γ3; 25 ug/ml): 22%
- remaining activity at 50 µg/mL (CK1γ3; 50 ug/ml): 15%
- remaining activity at 5 µg/mL (Fgr; 5 ug/ml): 36%
- remaining activity at 25 µg/mL (Fgr; 25 ug/ml): 10%
Structure (SMILES): COc1cc(O)c(CC=C(C)C)c(O)c1C(=O)/C=C/c1ccc(O)cc1 [Xanthohumol, xanthohumol]
